Data published in US20040038424A1, “Formaldehyde-ammonium salt complexes for the stabilization of blood cells” (priority 2002, published 2004).

Key:
[1] = tested on: platelet granule marker CD62p on platelets; assay: Percentage of CD62p positive platelets by flow cytometry (platelet activation state); assay type: cell-based, human; details: dibasic versus tribasic ammonium citrate in the reagent, FIGS. 11A and 11B
Source text: When used to stabilize blood samples or fractions or other tissues containing platelets, the composition and methods of this invention preserve platelet activity in the state of activation substantially the same as that existing at the time of blood or platelet withdrawal from the blood or platelet donor. By “state of activation of the platelets” or “Activation Potential” as used herein is meant the percentage of platelets expressing the CD62p antigen, i.e., the percentage of platelets that bind CD62p fluorescently-labeled antibody as performed by flow cytometry, or CD62p positive platelets in the sample. The CD62p antigen represents a glycoprotein antigen that is unique to megakaryocyte, platelet, and endothelial cell secretory granules. […]
Expression of CD62p is measured typically by flow cytometric analysis using dual or multi-parameter analyses, and particularly by staining the samples with labeled ligands that bind to CD62p on the platelets in the sample. The ligands are conventionally monoclonal antibodies to the antigen to be measured. […]
The same protocol was conducted on activated blood samples. […] PAP was assessed using 2 μl of a 1/100 dilution (0.0324 mM) of stock PMA is added with 10 μl antibodies and 100 μl of diluent (PBS) and 2.5 μl of blood and incubated for 15 minutes (final concentration of 11.58 μM). […]

cells = assay: Cellular stabilization (several experiments); assay type: cell-based

| Structure (SMILES) | stabilization of CD62p by ammonium salt type [1] | effectiveness in cellular stabilization (cells) |
| --- | --- | --- |
| N.N.O=C(O)CC(O)(CC(=O)O)C(=O)O [dibasic ammonium citrate] | better stabilization |  |
| C1N2CN3CN1CN(C2)C3 [hexamethylenetetramine] |  | not effective |
